In patent US4593093A, “Acyl derivatives” (priority 1980, dated 1986):
Counter-ions that a name gives are not always drawn. Like-named read-outs stand apart in the source and are kept apart here.

Experiments:
Streptococcus faecalis = experiment: Activity in vitro: minimum inhibitory concentration; assay type: cell-based; settings: Enterococcus faecalis
Proteus inconstans = experiment: as above; assay type: cell-based; settings: Providencia alcalifaciens
Streptococcus pyogenes [1] = experiment: Activity in vivo: survival of intraperitoneally infected mice; settings: sc, 96 h; mice infected i.p. with Streptococcus pyogenes; s.c. twice, 1 h and 3 h after infection; survival on 4th day; read-out: CD50 (dosage at which 50% of the animals survive)
Method: (§1) Groups of 5 mice are infected intraperitoneally with an aqueous suspension of various pathogens. The test substance in physiological sodium chloride solution is administered subcutaneously twice, i.e. 1 hour and 3 hours after the infection. The number of surviving animals is determined on the 4th day. Various dosages are administered and that dosage at which 50% of the experimental animals survive (CD50, mg/kg) is determined by interpolation.

Serratia marcescens [2] = experiment: Activity in vitro: minimum inhibitory concentration; assay type: cell-based
Staphylococcus epidermis = experiment: as above; assay type: cell-based
Enterobacter cloacae [3] = experiment: as above; assay type: cell-based
Streptococcus pneumoniae = experiment: as above; assay type: cell-based
Proteus morganii = experiment: as above; assay type: cell-based; settings: Morganella morganii
Streptococcus pyogenes [4] = experiment: as above; assay type: cell-based
Escherichia coli [5] = experiment: as above; assay type: cell-based
Enterobacter aerogenes = experiment: as above; assay type: cell-based; settings: Klebsiella aerogenes
Citrobacter freundii = experiment: as above; assay type: cell-based
Staphylococcus aureus = experiment: as above; assay type: cell-based
Pseudomonas aeruginosa [6] = experiment: as above; assay type: cell-based
Streptococcus viridans = experiment: as above; assay type: cell-based
Proteus mirabilis = experiment: as above; assay type: cell-based
Klebsiella pseumoniae = experiment: as above; assay type: cell-based
Proteus rettgeri = experiment: as above; assay type: cell-based; settings: Providencia rettgeri
Serratia marcescens [7] = experiment: Activity in vivo: survival of intraperitoneally infected mice; settings: sc, 96 h, mice infected i.p. with Serratia marcescens strain 1, s.c. twice, 1 h and 3 h after infection, survival on 4th day, read-out: CD50 (dosage at which 50% of the animals survive)
Method: as §1

Escherichia coli [8] = experiment: as above; settings: sc, 96 h; mice infected i.p. with Escherichia coli; s.c. twice, 1 h and 3 h after infection; survival on 4th day; read-out: CD50 (dosage at which 50% of the animals survive)
Method: as §1

Enterobacter cloacae [9] = experiment: as above; settings: sc, 96 h; mice infected i.p. with Enterobacter cloacae; s.c. twice, 1 h and 3 h after infection; survival on 4th day; read-out: CD50 (dosage at which 50% of the animals survive)
Method: as §1

Pseudomonas aeruginosa [10] = experiment: as above; settings: sc, 96 h; mice infected i.p. with Pseudomonas aeruginosa; s.c. three times, 1 h, 3 h and 5 h after infection; survival on 4th day; read-out: CD50 (dosage at which 50% of the animals survive)
Method: as §1
*Administered subcutaneously three times: 1 hour, 3 hours and 5 hours

[11] = Streptococcus faecalis strain 1
[12] = Streptococcus faecalis strain 2
[13] = Streptococcus pyogenes strain 1, read-out: Minimum inhibitory concentration
[14] = read-out: Minimum inhibitory concentration, Streptococcus pyogenes strain 2
[15] = Enterobacter aerogenes strain 1
[16] = Enterobacter aerogenes strain 2
[17] = Pseudomonas aeruginosa strain 3

Structure (SMILES)	MIC (Streptococcus faecalis; [11])	MIC (Streptococcus faecalis; [12])	MIC (Proteus inconstans)	ED50 (Streptococcus pyogenes [1])	MIC (Serratia marcescens [2]; Serratia marcescens strain 1)	MIC (Serratia marcescens [2]; Serratia marcescens strain 2)	MIC (Serratia marcescens [2]; Serratia marcescens strain 3)	MIC (Staphylococcus epidermis)	MIC (Enterobacter cloacae [3]; Enterobacter cloacae strain 1)	MIC (Enterobacter cloacae [3]; Enterobacter cloacae strain 2)	MIC (Enterobacter cloacae [3]; Enterobacter cloacae strain 3)	MIC (Streptococcus pneumoniae)	MIC (Proteus morganii)	MIC (Streptococcus pyogenes [4]; [13])	MIC (Escherichia coli [5]; Escherichia coli strain 1)	MIC (Escherichia coli [5]; Escherichia coli strain 2)	MIC (Escherichia coli [5]; Escherichia coli strain 3)	MIC (Escherichia coli [5]; Escherichia coli strain 5)	MIC (Enterobacter aerogenes; [15])	MIC (Enterobacter aerogenes; [16])	other results
CC(=O)OCC1=C(C(=O)[O-])N2C(=O)[C@@H](NC(=O)/C(=N\O)c3c[se]c(N)n3)[C@H]2SC1.[Na+] [Product L, (6R, 7R)-3-(acetoxymethyl)-7-[2-(2-amino-4-selenazolyl)-2-[(Z)-hydroxyimino]-acetamido]-8-oxo-5-thia-1-azabicyclo[4.2.0]oct-2-ene-2-carboxylic acid sodium salt]	25 µg/mL	25 µg/mL	≤ 0.025 µg/mL	0.08 mg/kg	0.8 µg/mL	1.6 µg/mL	0.1 µg/mL	0.4 µg/mL	200 µg/mL	6.3 µg/mL	25 µg/mL	0.1 µg/mL	0.4 µg/mL	0.05 µg/mL	≤ 0.025 µg/mL	≤ 0.025 µg/mL	1.6 µg/mL	0.1 µg/mL	≤ 0.025 µg/mL	0.4 µg/mL	MIC (Streptococcus pyogenes [4]; [14]): ≥ 0.025 µg/mL; MIC (Escherichia coli [5]; Escherichia coli strain 4): 6.3 µg/mL; MIC (Citrobacter freundii; Citrobacter freundii strain 1): 3.1 µg/mL; MIC (Citrobacter freundii; Citrobacter freundii strain 2): 0.025 µg/mL; MIC (Staphylococcus aureus; Staphylococcus aureus strain 1): 0.2 µg/mL; MIC (Staphylococcus aureus; Staphylococcus aureus strain 2): 0.4 µg/mL; MIC (Staphylococcus aureus; Staphylococcus aureus strain 3): 0.4 µg/mL; MIC (Staphylococcus aureus; Staphylococcus aureus strain 4): 0.4 µg/mL; MIC (Pseudomonas aeruginosa [6]; Pseudomonas aeruginosa strain 1): 50 µg/mL; MIC (Pseudomonas aeruginosa [6]; [17]): 12.5 µg/mL; MIC (Streptococcus viridans): 0.8 µg/mL; MIC (Proteus mirabilis; Proteus mirabilis strain 3): ≤ 0.025 µg/mL; MIC (Proteus mirabilis; Proteus mirabilis strain 4): 0.05 µg/mL; MIC (Proteus mirabilis; Proteus mirabilis strain 5): 0.05 µg/mL; MIC (Klebsiella pseumoniae; Klebsiella pseumoniae strain 1): ≤ 0.025 µg/mL; MIC (Klebsiella pseumoniae; Klebsiella pseumoniae strain 2): ≤ 0.025 µg/mL; MIC (Klebsiella pseumoniae; Klebsiella pseumoniae strain 3): ≤ 0.025 µg/mL
CC(=O)OCC1=C(C(=O)O)N2C(=O)[C@@H](NC(=O)/C(=N\OC(C)(C)C(=O)O)c3c[se]c(N)n3)[C@H]2SC1 [Product I, disodium salt]	> 100 µg/mL	> 100 µg/mL	0.012 µg/mL	2.7 mg/kg	1.6 µg/mL	3.1 µg/mL	0.4 µg/mL	50 µg/mL	> 100 µg/mL	6.3 µg/mL	> 100 µg/mL	0.2 µg/mL	0.8 µg/mL	0.2 µg/mL	1.6 µg/mL	0.2 µg/mL	0.8 µg/mL	0.4 µg/mL	0.4 µg/mL	0.2 µg/mL	MIC (Proteus rettgeri): 0.1 µg/mL; ED50 (Serratia marcescens [7]): 1.8 mg/kg; ED50 (Escherichia coli [8]): 0.067 mg/kg; ED50 (Enterobacter cloacae [9]): > 50 mg/kg; ED50 (Pseudomonas aeruginosa [10]): 23 mg/kg; MIC (Streptococcus pyogenes [4]; Streptococcus pyogenes strain 2, read-out: Minimum inhibitory concentration): 0.05 µg/mL; MIC (Citrobacter freundii; Citrobacter freundii strain 1): 100 µg/mL; MIC (Citrobacter freundii; Citrobacter freundii strain 2): 1.6 µg/mL; MIC (Staphylococcus aureus; Staphylococcus aureus strain 1): 50 µg/mL; MIC (Staphylococcus aureus; Staphylococcus aureus strain 2): 100 µg/mL; MIC (Staphylococcus aureus; Staphylococcus aureus strain 3): 50 µg/mL; MIC (Staphylococcus aureus; Staphylococcus aureus strain 4): 100 µg/mL; MIC (Pseudomonas aeruginosa [6]; [17]): 1.6 µg/mL; MIC (Streptococcus viridans): 6.3 µg/mL; MIC (Proteus mirabilis; Proteus mirabilis strain 3): 0.1 µg/mL; MIC (Proteus mirabilis; Proteus mirabilis strain 4): 0.1 µg/mL; MIC (Proteus mirabilis; Proteus mirabilis strain 5): 0.2 µg/mL; MIC (Klebsiella pseumoniae; Klebsiella pseumoniae strain 1): 0.8 µg/mL; MIC (Klebsiella pseumoniae; Klebsiella pseumoniae strain 2): 0.4 µg/mL; MIC (Klebsiella pseumoniae; Klebsiella pseumoniae strain 3): 0.8 µg/mL
CC(C)(O/N=C(\C(=O)N[C@@H]1C(=O)N2C(C(=O)[O-])=C(C[n+]3ccccc3)CS[C@H]12)c1c[se]c(N)n1)C(=O)O [Product K, 1-[[(6R, 7R)-7-[(Z)-2-(2-amino-4-selenazolyl)-2-[(1-carboxy-1-methylethoxy)imino]acetamido]-2-carboxy-8-oxo-5-thia-1-azabicyclo[4.2.0]oct-2-en-3-yl]methyl]pyridinium hydroxide sodium salt (internal salt)]	> 100 µg/mL	> 100 µg/mL	0.05 µg/mL	0.28 mg/kg	0.8 µg/mL	0.8 µg/mL	0.1 µg/mL	12.5 µg/mL	> 100 µg/mL	1.6 µg/mL	100 µg/mL	0.1 µg/mL	0.2 µg/mL	0.4 µg/mL	0.4 µg/mL	0.1 µg/mL	0.8 µg/mL	0.4 µg/mL	0.4 µg/mL	0.2 µg/mL	ED50 (Serratia marcescens [7]): 0.11 mg/kg; ED50 (Pseudomonas aeruginosa [10]): 1.1 mg/kg; MIC (Streptococcus pyogenes [4]; [14]): 0.1 µg/mL; MIC (Escherichia coli [5]; Escherichia coli strain 4): 25 µg/mL; MIC (Citrobacter freundii; Citrobacter freundii strain 1): 12.5 µg/mL; MIC (Citrobacter freundii; Citrobacter freundii strain 2): 0.4 µg/mL; MIC (Staphylococcus aureus; Staphylococcus aureus strain 1): 12.5 µg/mL; MIC (Staphylococcus aureus; Staphylococcus aureus strain 2): 50 µg/mL; MIC (Staphylococcus aureus; Staphylococcus aureus strain 3): 12.5 µg/mL; MIC (Staphylococcus aureus; Staphylococcus aureus strain 4): 12.5 µg/mL; MIC (Pseudomonas aeruginosa [6]; [17]): 1.6 µg/mL; MIC (Streptococcus viridans): 3.1 µg/mL; MIC (Proteus mirabilis; Proteus mirabilis strain 3): 0.4 µg/mL; MIC (Proteus mirabilis; Proteus mirabilis strain 4): 0.1 µg/mL; MIC (Proteus mirabilis; Proteus mirabilis strain 5): 0.05 µg/mL; MIC (Klebsiella pseumoniae; Klebsiella pseumoniae strain 1): 0.8 µg/mL; MIC (Klebsiella pseumoniae; Klebsiella pseumoniae strain 2): 0.2 µg/mL; MIC (Klebsiella pseumoniae; Klebsiella pseumoniae strain 3): 0.8 µg/mL
